Assay [1] has as its system NeutrAvidin-specific antibody. The assay is described as follows: NeutrAvidin-specific antibody titer in sera of mice given biotinylated peptide/NeutrAvidin complex, ELISA (Test Example 12). It is filed as in vivo, mouse. The settings on record: 5 μg as NeutrAvidin, base of tail Day 0 and Day 10, serum Day 17, IgG. The text has this: A biotinylated peptide was synthesized by linking the N-terminus of each of FL4 identified in Test Example 1, a peptide Mut 1 (amino acid sequence: ASYKAIR (SEQ ID NO: 2)) derived from FL4 of which the 1st amino acid residue was substituted by an alanine residue, a peptide Mut 2 (amino acid sequence: VAYKAIR (SEQ ID NO: 3)) derived from FL4 of which the 2nd amino acid residue was substituted by an alanine residue, a peptide Mut 3 (amino acid sequence: VSAKAIR, SEQ ID NO: 43) derived from FL4 of which the 3rd amino acid residue was substituted by an alanine residue, and a peptide Mut 4 (amino acid sequence: VSYKAAR, SEQ ID NO: 44) derived from FL4 of which the […] amino acid residue was substituted by an alanine residue to biotin. Subsequently, a biotinylated peptide/NeutrAvidin complex was produced by mixing each of the obtained biotinylated peptides and NeutrAvidin.
50 μL of physiological saline containing 5 μg of the complex or NeutrAvidin in terms of NeutrAvidin amount was administered into the base of the tail of each 7-week old C57BL/6 mouse on Day 0 and Day 10, and blood was collected on Day 17. As a control, a test was also carried out in the case where only physiological saline was administered in the same manner Meanwhile, in these tests, five mice in each group were used.
Sera were obtained from the blood collected on Day 17 and NeutrAvidin-specific antibody titer (IgG) in the sera was measured by ELISA. In FIG. 18, “NA” refers to the case of administration of NeutrAvidin, and “NA-FL4” refers to the case of administration of the biotinylated FL4/NeutrAvidin complex. Other peptides are shown in the same display format. Further, in FIG. 18, “cont” refers to the case where physiological saline was administered.

The test system of assay [2] is CD4^+ T cells contained in splenocytes. The assay is described as follows: Binding of phage clones to CD4+ T cells contained in splenocytes, flow cytometry (Test Example 6). In kind it is cell-based, mouse. The settings on record: phage clone 1.6×10^10 pfu/mL, 1×10^5 splenocytes. On the procedure:
(§1) Specifically, 1×10^5 splenocytes collected from mice and 1.6×10^10 pfu/mL of each phage clone were mixed, and the biotinylated antibody to the phage was added. Further, streptavidin modified with a fluorescent dye was added, and the binding of the phage to splenocytes was evaluated by flow cytometric analysis.

The subject of assay [3] is mouse-derived dendritic cells (FL-DCs). The assay is described as follows: Binding of phage clones to mouse-derived dendritic cells by flow cytometric analysis (Test Example 1). It is filed as cell-based. Particulars: phage clone displaying the peptide, 1.6×10^10 pfu/mL, 1×10^5 mouse-derived dendritic cells, flow cytometry with antibody against the phage. On the procedure: Meanwhile, in the following test examples, unless otherwise indicated, as mouse-derived dendritic cells, dendritic cells (FL-DCs) that were obtained by culturing murine bone marrow cells in the presence of Flt3-L (final concentration 100 ng/ml) for 1 week to induce differentiation were used. In addition, in the following test examples, FL-DCs were analyzed in some cases separately for Plasmacytoid DCs (pDCs), CD11b positive dendritic cells (CD11b^+ DCs), and CD11b negative dendritic cells (CD11b^− DCs). Among the mouse-derived dendritic cells, pDCs is a group of CD11c positive and B220 positive cells; CD11b^+ DCs is a group of CD11c positive, B220 negative and CD11b positive cells among mouse-derived dendritic cells; CD11b^− DCs is a group of CD11c positive, B220 negative, and CD11b negative cells among mouse-derived dendritic cells.
Each of phages recovered by three panning operations was monocloned and amplified. 1×10^5 mouse-derived dendritic cells and 1.6×10^10 pfu/mL of each phage clone were mixed, and then the phage was assayed for the binding to dendritic cells by flow cytometric analysis using an antibody against the phage.
About 60 phage clones obtained were subjected to flow cytometric analysis as described above. As a result, 37 clones shown in Table 1 were identified as clones capable of binding to dendritic cells. […]

The test system of assay [4] is dendritic cells contained in splenocytes. The assay is described as follows: Binding of phage clones to dendritic cells contained in splenocytes, flow cytometry (Test Example 6). It is filed as cell-based, mouse. The settings on record: phage clone 1.6×10^10 pfu/mL, 1×10^5 splenocytes. On the procedure: as §1
The next assay relates to EG7 cells. Description: Tumor size in mice transplanted with EG7 cells (Test Example 9). In kind it is in vivo, mouse. The settings on record: EG7 tumor bearing C57BL/6 mice, 50 μg as SL8 with 50 μg CpG oligodeoxynucleotide subcutaneously into the ears, compared with physiological saline. As for the experimental part: In this test, whether the regression effect of cancer was observed by SL8-specific CD8^+ CTLs induced by SL8-FL4 was evaluated. In this test, EG7 cells (cancer cells expressing OVA protein in EL4 cells derived from thymoma of C57BL/6 mouse) were used as cancer cells. Specific test methods are as follows.
1 (10^6 EG7 cells were transplanted into the abdomen of 7-week old C57BL/6 mice to prepare tumor bearing mice. 50 μL of physiological saline containing 50 μg of SL8-FL4 in terms of SL8 amount and 50 μg of CpG oligodeoxynucleotide (K3 type, product name “K3 Et-Free”, product number “CN-65003” manufactured by GeneDesign Inc.) was administered subcutaneously into the ears of mice after EG7 cells were transplanted and the tumor diameter reached about 5 mm (about 5 days after transplantation). Thereafter, tumor size was measured over time while breeding the mice. In addition, similar tests were carried out with regard to the case where 50 μL of physiological saline containing 50 μg SL8 and 50 μg of CpG oligodeoxynucleotide was administered, and the case where only physiological saline was administered (control). Meanwhile, in these tests, five mice in each group were used.

Assay [5] concerns antigen-specific CD8^+ CTLs. Description: Tetramer assay on regional lymph nodes, CD8+ CTL inducibility (Test Example 8). In kind it is in vivo, mouse. The settings on record: co-administered with CpG oligodeoxynucleotide, 50 μg in terms of SL8 subcutaneously into the ears Day 0, lymph nodes Day 7. As for the experimental part: A fusion peptide (SL8-FL4) was prepared by linking the N-terminus of the peptide consisting of the amino acid sequence of FL4 to the C-terminus of SL8 (SIINFEKL; SEQ ID NO: 40) which is an MHC class I epitope peptide in chicken ovalbumin (OVA). Specifically, the amino acid sequence of the fusion peptide is [Amino acid sequence of SL8 (SIINFEKL; SEQ ID NO: 40)]-[VSYKAIR; SEQ ID NO: 1]. The production method of the fusion peptide was the same as that of PspA-FL4 except that a DNA molecule encoding SL8 was used. In addition, each of peptide-fusion bodies (SL8-F8 and SL8-FL4Scr) in which the peptide was fused with SL8 was prepared using each of FL8 and the scramble peptide of FL4 (FL4Scr, amino acid sequence: YRSIVKA, SEQ ID NO: 41) in the same manner. […]
The tetramer assay was carried out as follows. Lymphocytes were recovered from the regional lymph nodes, were stained with fluorescently labeled antibodies against CD44 and CD8 and a fluorescently labeled tetramer recognizing the SL8 peptide presented on H-2K^b, then were analyzed using a flow cytometer.

A further assay concerns Streptococcus pneumoniae. Description: Streptococcus pneumoniae challenge of mice immunized with fusion peptide (Test Example 3). It is filed as in vivo. As for the experimental part:
The following test was carried out by using a fusion peptide (FL4-PspA, amino acid sequence: [Amino acid sequence of PspA]-[VSYKAIR; SEQ ID NO: 1]-[VSYKAIR; SEQ ID NO: 1]-[VSYKAIR; SEQ ID NO: 1]) that was prepared in Test Example 2, by linking the N-terminus of a peptide obtained by binding three amino acid sequences of FL4 directly and tandemly to the C-terminus of PspA.
Immunity induction was carried out by administering 50 μL of physiological saline containing 1 μg of FL4-PspA or PspA in terms of PspA amount into the base of the tail of each of 7-week old C57BL/6 mice on Day 0 and Day 10. Then, intranasal administration (one of the nostrils of 15 μL) of Streptococcus pneumoniae (1.7×10^9 cfu/ml: […]) was performed on Day 18, and the body weight and survival rate of each mouse after Streptococcus pneumoniae administration were determined. In addition, as a control, a test was also carried out in the case where only physiological saline was administered in the same manner without conducting immunization. Further, a test was also carried out in the case where 50 μL of physiological saline containing 10 μg of CpG oligodeoxynucleotide (K3 type, product name “K3 Et-Free”, product number “CN-65003” manufactured by GeneDesign Inc.) in addition to 1 μg of FL4-PspA or PspA in terms of PspA amount was administered in the same manner Meanwhile, in these tests, five mice in each group were used.
Meanwhile, in FIG. 6, the day on which Streptococcus pneumoniae was administered is shown as Day 0. In addition, the meanings of the abbreviations in FIG. 6 are as indicated in the column of Test Example 2 above.

For another assay, the system named is PspA-specific antibodies. The assay is described as follows: PspA-specific antibody titer in sera of mice given fusion peptide, ELISA (Test Example 2). It is filed as in vivo, mouse. The settings on record: C57BL/6 mice. On the procedure:
50 μL of physiological saline containing 1 μg of the fusion peptide or PspA in terms of PspA amount was administered into the base of the tail of each of 7-week old C57BL/6J JmsSlc mice (hereinafter sometimes abbreviated as C57BL/6 mice) on Day 0 and Day 10, and blood was collected on Day 17. As a control, a test was also carried out in the case where only physiological saline was administered in the same manner. Further, a test was also carried out in the case where 50 μL of physiological saline containing 10 μg of CpG oligodeoxynucleotide (K3 type, product name “K3 Et-Free”, product number “CN-65003” manufactured by GeneDesign Inc.) in addition to 1 μg of the fusion peptide or PspA in terms of PspA amount was administered in the same manner Meanwhile, in these tests, five mice in each group were used.
Sera were obtained from the blood collected on Day 17 and PspA-specific antibody titers (IgG, IgG1, and IgG2a) in the sera were measured by ELISA. In FIGS. 3 to 5, “PspA WT” refers to PspA, “PspA-FL4” refers to the fusion peptide in which the N-terminus of a peptide obtained by binding three amino acid sequences of FL4 directly and tandemly was linked to the C-terminus of PspA, “PspA WT+CpG” refers to the case where PspA and CpG oligodeoxynucleotide were administered. In addition, in FIGS. 3 to 5, the same meaning applies to the same display format as “PspA-FL4” and “PspA WT+CpG”. […]

With “ASYKAIR (Amino acid sequence of motif sequence) [Mut 1]”, the NeutrAvidin-specific antibody production result in assay [1] is listed as “excellent production ability”.

As for “GGSKPVR (phage display; displayed peptide) [FL8]”, in assay [2], the “binding of phage clone to CD4+ T cells contained in splenocytes” value is “also bound to CD4^+ T cells contained in splenocytes”. In addition, the “binding of phage clone to dendritic cells” value in assay [3] is “binding to bone marrow-derived dendritic cells was confirmed”. Moreover, in assay [4], the “binding of phage clone to dendritic cells contained in splenocytes” value is given as “bind to all dendritic cells contained in splenocytes”.

With SIINFEKL [SL8, reference compound], in the assay with EG7 cells, the tumor regression effects entry is “some tumor regression effects”. Besides, the “induction of antigen-specific CD8+ CTLs (tetramer assay, regional lymph nodes)” value in assay [5] is on record as “could not be induced”.

In the case of “VAYKAIR (Amino acid sequence of motif sequence) [Mut 2]”, the NeutrAvidin-specific antibody production result in assay [1] is given as “excellent production ability”.

As to VSAKAIR (Mut3 peptide) [Mut 3], in assay [1], the NeutrAvidin-specific antibody production result was “an excellent antibody-producing ability is recognized unlike the case where each of the amino acid sequences of Mut 3 and Mut 4 is contained”.

VSYKAAR (Mut 4 peptide): the NeutrAvidin-specific antibody production entry in assay [1] is “an excellent antibody-producing ability is recognized unlike the case where each of the amino acid sequences of Mut 3 and Mut 4 is contained”.

Regarding “[Amino acid sequence of PspA]-[VSYKAIR; SEQ ID NO: 1]-[VSYKAIR; SEQ ID NO: 1]-[VSYKAIR; SEQ ID NO: 1] [PspA-FL4]”, the “body weight after administration of Streptococcus pneumoniae” value in the assay with Streptococcus pneumoniae (C57BL/6 mice immunized Day 0 and Day 10 (1 μg as PspA), intranasal 5.1×10^7 cfu/mouse Day 18) was “no decrease in body weight was observed”. Besides, in the assay on Streptococcus pneumoniae (C57BL/6 mice, Streptococcus pneumoniae intranasal challenge), the infection protective ability result is recorded as “strong infection protective ability”. For the same substance, in the assay on Streptococcus pneumoniae (after 10 days from the administration of Streptococcus pneumoniae, C57BL/6 mice), the survival rate stood at 100%. For the same substance, the “production ability of PspA-specific antibodies” value in the assay with PspA-specific antibodies (1 μg in terms of PspA into base of tail Day 0 and Day 10, serum Day 17, ELISA) was “remarkably improve”. Besides, the “PspA-specific antibody titer compared with PspA and adjuvant (CpG oligodeoxynucleotide) administered at the same time” value in the assay on PspA-specific antibodies (fusion peptide without adjuvant, serum Day 17) was “remarkably higher”.

These data come from patent publication US11186618B2, “Dendritic-cell-targeted peptide, fusion peptide utilizing said peptide, and vaccine utilizing said fusion peptide” (The Research Foundation for Microbial Diseases of Osaka …, priority 2016, dated 2021).
